Where a name gives a salt, the structure may show the parent alone. Read-outs that look alike come from different tables or passages of the source.
Columns and labels:
PI3 K γ = target: T1, PI3 K γ (Homo sapiens, UniProt P48736); assay: Inhibitory activity to PI3K γ, PI 3-Kinase (human) HTRF Assay kit; format: biochemical; settings: for Inhibition rate % to PI3 K γ: dihydrate di-methanesulfonate
T1 construct: purchased Biology, Medicilon
Method in brief: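 HTRF kinase assay with PI3Kγ at 80 ng/well, 10 μM PIP2 and 100 μM ATP (both final) in DTT-containing reaction buffer, 1% DMSO. Preliminary screen at 10 μM and 1 μM compound, followed by IC50 determination for selected compounds.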

PDGFR β enzyme = target: T2, PDGFR β enzyme (Homo sapiens, UniProt P09619); assay: Inhibitory activity to PDGFR β enzyme, HTRF kinEASE TK kit; format: biochemical
T2 construct: purchased Invitrogen P3082
T2 sequence (P09619 33-1106): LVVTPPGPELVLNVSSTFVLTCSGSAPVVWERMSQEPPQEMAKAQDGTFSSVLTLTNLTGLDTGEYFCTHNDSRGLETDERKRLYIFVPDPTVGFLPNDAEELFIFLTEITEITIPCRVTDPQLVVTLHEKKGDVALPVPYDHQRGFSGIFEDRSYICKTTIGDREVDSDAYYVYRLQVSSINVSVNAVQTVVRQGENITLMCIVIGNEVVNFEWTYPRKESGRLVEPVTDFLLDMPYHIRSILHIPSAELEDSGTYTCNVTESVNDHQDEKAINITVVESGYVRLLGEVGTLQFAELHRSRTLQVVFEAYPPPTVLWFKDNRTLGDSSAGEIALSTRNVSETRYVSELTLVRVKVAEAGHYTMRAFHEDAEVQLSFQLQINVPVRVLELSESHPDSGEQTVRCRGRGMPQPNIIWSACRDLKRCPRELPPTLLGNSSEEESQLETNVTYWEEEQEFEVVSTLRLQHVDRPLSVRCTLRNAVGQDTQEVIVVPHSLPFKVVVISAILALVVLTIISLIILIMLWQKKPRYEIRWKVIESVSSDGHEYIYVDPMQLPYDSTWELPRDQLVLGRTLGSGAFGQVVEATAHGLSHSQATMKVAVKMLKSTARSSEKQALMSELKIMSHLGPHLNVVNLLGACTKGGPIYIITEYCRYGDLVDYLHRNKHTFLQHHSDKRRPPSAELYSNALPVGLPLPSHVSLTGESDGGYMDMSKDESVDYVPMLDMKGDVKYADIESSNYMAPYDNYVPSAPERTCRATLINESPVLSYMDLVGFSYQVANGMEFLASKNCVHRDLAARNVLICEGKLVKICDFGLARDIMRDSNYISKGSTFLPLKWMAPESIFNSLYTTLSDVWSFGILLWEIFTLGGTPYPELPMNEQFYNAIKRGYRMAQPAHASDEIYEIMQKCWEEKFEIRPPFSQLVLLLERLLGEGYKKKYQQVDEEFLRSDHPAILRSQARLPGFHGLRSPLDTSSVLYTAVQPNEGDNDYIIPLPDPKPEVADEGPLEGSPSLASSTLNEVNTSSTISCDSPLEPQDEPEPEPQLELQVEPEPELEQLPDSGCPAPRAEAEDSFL
Method in brief: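 Recombinant human PDGFRβ phosphorylating TK-substrate in kinase buffer containing MgCl2, MnCl2, DTT and SEB, with ATP. Phosphorylation detected by HTRF using TK-Ab-Cryptate and Sa-XL665.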

[1] = system: U87MG human glioblastoma Multiforme cell strain; assay: Antitumor cell proliferation in vitro, CCK-8 detection kit, U87MG; format: cell-based; settings: U-87 MG, 72 h, U-87MG cells, 1st and 2nd test where printed
Protocol: (§1) The half inhibitory concentration IC50 of proliferation of three kinds of tumor cell strain (U87MG, PC-3, BT474) for 12 candidate compounds of the present invention is detected by CCK-8 detection kits.
U87MG human glioblastoma Multiforme cell strain (cell bank of Chinese Academy of Sciences)
(§2) The studied compounds are dissolved by DMSO to make the final concentration 10 mM.
(§3) • a) Collecting the cells in logarithmic phase, counting, and resuspending the cells with complete medium. • b) Adjusting the concentration of cells to a suitable concentration, inoculating in 96 well plates, each well is inoculated to 100 μl cell suspension.
(§4) c) incubating cells for 24 hours in a 5% CO2 incubator at temperature of 37° C., under the condition of 100% relative humidity.
(§5) a) The cells in logarithmic phase is collected, counted, resuspended with complete medium. The concentration of cells is adjusted to a suitable concentration (determined in accordance with the optimizable test results of cell density), and the cells is inoculated in 96 well plates, wherein each well is inoculated 100 μl cell suspension, Cells are incubated for 24 hours in 5% CO2 incubator at temperature of 37° C. under the condition of 100% relative humidity.
(§6) b) The test compounds are diluted to 500 μM with culture medium, then diluted in series eight times. […] as 25 μl/well. The final concentrations of the compounds are diluted from 100 μM to 0 μM, with 4 times dilution, and there are a total of 10 concentration points.
(§7) c) Cells are incubated for 72 hours in 5% CO2 incubator at temperature of 37° C. under the condition of 100% relative humidity.
(§8) d) The culture medium is aspirated and discarded, and complete medium containing 10% CCK-8 is incubated in a incubator at 37° C. for 2˜4 hours.
(§9) e) After shocking gently, the absorbance of the culture medium is measured at 450 nm wavelength on SpectraMax M5 Microplate Reader, with the absorbance at 650 nm as reference, to calculate the inhibition rate.

[2] = system: BT474 human breast cancer cell strain; assay: Antitumor cell proliferation in vitro, CCK-8 detection kit, BT474; format: cell-based; settings: Homo sapiens, BT-474, 72 h, BT-474 cells, 1st and 2nd test where printed
Protocol: as §1
BT474 human breast cancer cell strain (cell bank of Chinese Academy of Sciences) Reagents and materials:
as §2, §3, §4, §5, §6, §7, §8, §9

PI3Kδ = target: T3, PI3Kδ (Homo sapiens, UniProt O00329); assay: Inhibitory activity to PI3K δ, PI 3-Kinase (human) HTRF Assay kit; format: biochemical
T3 construct: purchased Millipore 14-604
T3 sequence (O00329 whole entry): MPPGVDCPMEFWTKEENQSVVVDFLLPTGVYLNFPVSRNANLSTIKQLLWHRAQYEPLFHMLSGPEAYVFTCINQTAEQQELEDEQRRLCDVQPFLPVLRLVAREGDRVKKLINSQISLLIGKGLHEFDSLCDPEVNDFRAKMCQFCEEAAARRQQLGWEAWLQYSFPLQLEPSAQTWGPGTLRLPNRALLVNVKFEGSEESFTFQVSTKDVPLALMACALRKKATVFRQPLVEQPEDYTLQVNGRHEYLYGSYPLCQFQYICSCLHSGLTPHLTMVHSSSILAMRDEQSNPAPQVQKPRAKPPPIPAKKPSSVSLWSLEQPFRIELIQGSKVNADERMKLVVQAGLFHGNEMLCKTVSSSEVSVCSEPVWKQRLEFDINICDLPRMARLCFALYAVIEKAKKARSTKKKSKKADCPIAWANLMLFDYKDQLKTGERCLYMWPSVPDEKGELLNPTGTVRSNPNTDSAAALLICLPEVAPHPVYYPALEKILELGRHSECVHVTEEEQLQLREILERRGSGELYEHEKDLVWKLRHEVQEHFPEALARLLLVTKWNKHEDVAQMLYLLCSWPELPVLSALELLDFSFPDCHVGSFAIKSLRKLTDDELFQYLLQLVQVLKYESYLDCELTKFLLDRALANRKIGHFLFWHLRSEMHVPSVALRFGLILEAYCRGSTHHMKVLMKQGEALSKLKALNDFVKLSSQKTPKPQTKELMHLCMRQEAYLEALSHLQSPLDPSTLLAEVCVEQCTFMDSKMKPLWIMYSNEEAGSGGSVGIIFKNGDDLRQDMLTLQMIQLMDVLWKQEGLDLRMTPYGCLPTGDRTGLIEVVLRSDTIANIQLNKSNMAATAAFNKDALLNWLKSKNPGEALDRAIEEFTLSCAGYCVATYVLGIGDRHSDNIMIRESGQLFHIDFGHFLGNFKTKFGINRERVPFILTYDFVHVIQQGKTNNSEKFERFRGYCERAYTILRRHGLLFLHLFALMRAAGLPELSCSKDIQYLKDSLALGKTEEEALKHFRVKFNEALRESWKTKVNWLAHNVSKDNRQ
T3 sequence (P27986 whole entry partner): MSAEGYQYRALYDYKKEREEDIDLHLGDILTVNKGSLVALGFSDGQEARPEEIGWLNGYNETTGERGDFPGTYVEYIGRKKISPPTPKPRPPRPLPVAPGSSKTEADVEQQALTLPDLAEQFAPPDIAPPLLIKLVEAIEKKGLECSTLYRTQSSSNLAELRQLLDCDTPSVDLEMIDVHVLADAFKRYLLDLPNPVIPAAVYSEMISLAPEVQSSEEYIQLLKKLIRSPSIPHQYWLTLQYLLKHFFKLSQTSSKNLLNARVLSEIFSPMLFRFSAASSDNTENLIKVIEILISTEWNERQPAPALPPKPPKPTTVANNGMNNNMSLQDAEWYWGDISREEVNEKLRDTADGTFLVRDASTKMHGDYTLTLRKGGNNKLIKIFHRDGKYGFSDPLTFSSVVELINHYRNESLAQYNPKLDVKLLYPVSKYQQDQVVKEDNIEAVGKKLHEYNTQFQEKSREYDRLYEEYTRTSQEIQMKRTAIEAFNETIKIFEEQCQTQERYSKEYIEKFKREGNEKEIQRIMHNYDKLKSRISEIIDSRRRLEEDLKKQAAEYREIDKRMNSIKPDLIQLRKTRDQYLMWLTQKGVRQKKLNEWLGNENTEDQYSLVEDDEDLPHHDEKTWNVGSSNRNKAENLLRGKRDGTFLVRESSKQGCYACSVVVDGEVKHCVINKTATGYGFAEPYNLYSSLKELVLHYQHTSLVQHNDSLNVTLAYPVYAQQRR
Method in brief: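 Inhibition of human PI3Kδ was assessed with the Millipore PI 3-Kinase (human) HTRF Assay kit. PI3Kδ was screened at 2 ng/well, diluted in 2×PIP2 operating fluid. Reactions were 20 μL and contained 100 μM ATP. Stop solution was Stop A and Stop B mixed 3:1. Detection solution was DM C, DM A and DM B mixed 18:1:1. Compounds were prepared from DMSO stocks, and percent inhibition was reported.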

[3] = 10 μM (Table 7), read-out: Inhibition rate % to PI3Kδ

T1 sequence (P48736 whole entry): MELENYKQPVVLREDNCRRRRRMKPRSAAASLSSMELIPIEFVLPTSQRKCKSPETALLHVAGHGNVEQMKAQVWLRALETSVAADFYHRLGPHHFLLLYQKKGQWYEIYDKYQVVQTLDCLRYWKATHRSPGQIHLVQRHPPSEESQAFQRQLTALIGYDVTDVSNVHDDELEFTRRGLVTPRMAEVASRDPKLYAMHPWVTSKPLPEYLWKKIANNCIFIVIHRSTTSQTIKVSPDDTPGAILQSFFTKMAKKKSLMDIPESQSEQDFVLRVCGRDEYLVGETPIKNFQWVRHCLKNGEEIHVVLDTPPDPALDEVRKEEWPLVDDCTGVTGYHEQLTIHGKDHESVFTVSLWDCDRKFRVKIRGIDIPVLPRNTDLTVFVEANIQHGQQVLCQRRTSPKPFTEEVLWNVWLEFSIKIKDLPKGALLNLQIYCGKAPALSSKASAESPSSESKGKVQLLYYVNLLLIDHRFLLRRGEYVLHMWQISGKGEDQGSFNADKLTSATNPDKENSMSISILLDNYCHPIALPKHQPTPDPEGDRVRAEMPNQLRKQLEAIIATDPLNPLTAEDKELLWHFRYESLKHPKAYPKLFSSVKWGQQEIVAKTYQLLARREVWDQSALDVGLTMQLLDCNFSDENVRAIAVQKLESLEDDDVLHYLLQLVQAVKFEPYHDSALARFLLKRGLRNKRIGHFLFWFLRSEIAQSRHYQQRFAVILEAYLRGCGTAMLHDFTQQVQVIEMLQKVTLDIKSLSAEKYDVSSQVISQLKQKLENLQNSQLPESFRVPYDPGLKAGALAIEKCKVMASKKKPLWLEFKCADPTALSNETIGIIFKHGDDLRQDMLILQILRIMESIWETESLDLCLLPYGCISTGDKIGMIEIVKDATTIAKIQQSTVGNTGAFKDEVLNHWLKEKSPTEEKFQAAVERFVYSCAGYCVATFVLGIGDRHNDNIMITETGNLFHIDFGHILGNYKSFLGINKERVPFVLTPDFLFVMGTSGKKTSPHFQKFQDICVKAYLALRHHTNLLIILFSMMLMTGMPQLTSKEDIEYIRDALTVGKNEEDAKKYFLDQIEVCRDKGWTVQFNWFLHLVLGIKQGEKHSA

| Inhibition rate % to PI3 K γ (PI3 K γ; 1 μM) | Inhibition rate % to PI3 K γ (PI3 K γ; 10 μM) | Inhibition rate % (PDGFR β) (PDGFR β enzyme; 1 μM, dihydrate di-methanesulfonate) | inhibition at 10 µM (PDGFR β enzyme; 10 μM, read-out: Inhibition rate % (PDGFR β)) | IC50 [1] | Inhibition rate % to PI3Kδ (PI3Kδ; 1 μM (Table 7), dihydrate di-methanesulfonate, 1 µM) | SMILES | IC50 [2] | inhibition at 10 µM (PI3Kδ; [3]) | inhibition at 1 µM (PI3 K γ; 1 μM, read-out: Inhibition rate % to PI3 K γ) | inhibition at 10 µM (PI3 K γ; 10 μM, read-out: Inhibition rate % to PI3 K γ) | inhibition at 0.4 µM (PI3Kδ; 0.4 μM (Table 8), read-out: Inhibition rate % to PI3K delta) | inhibition at 1 µM (PI3Kδ; 1 μM (Table 7), read-out: Inhibition rate % to PI3Kδ) | inhibition at 10 µM (PI3Kδ; 10 μM (Table 8), read-out: Inhibition rate % to PI3K delta) | inhibition at 2 µM (PI3Kδ; read-out: Inhibition rate % to PI3K delta) |
| --- | --- | --- | --- | --- | --- | --- | --- | --- | --- | --- | --- | --- | --- | --- |
| 29.82% | 81.29% | −10.96% | 13.8% | 8.15 µM | 96.32% | c1ccc(-c2ccnc3ccc(Nc4nc(NC5CC5)c5nc[nH]c5n4)cc23)cc1 [MED1007-91, N6-cyclopropyl-N2-(4-phenylquinoline-6-yl)-9H-purine-2,6-diammonium salt dihydrate di-methanesulfonate] | 0.523 µM | 115% |  |  |  |  |  |  |
|  |  |  |  |  |  | COC[C@H]1OC(=O)c2coc3c2[C@@]1(C)C1=C(C3=O)[C@@H]2CCC(=O)[C@@]2(C)C[C@H]1OC(C)=O [Wortmannin, reference compound] | 5.21 µM | 108% | 105% | 101% | 93.4% | 95.4% | 105% | 109% |
